Laboratory results as given in US4342751A (priority 1981, dated 1982).
Like-named read-outs stand apart in the source and are kept apart here. Numbered stars: 1 amine (or outer) side, 2 acyl side, 3 side chain; on linkers, the order of the positions; unused ones are H or OH. Square brackets hold non-standard residues; d marks the D form. Peptide text beside a SMILES is read from it. X1 = CCC(N[*:1])C(C)C(=O)O[C@H](C(=O)[*:2])[C@@H](C)CC; X2 = C[C@H](N[*:1])C(=O)C(C)(C)C(=O)[*:2]; NMeY = CN[C@@H](Cc1ccc(O)cc1)C(=O)O; NMeI = CC[C@H](C)[C@H](NC)C(=O)O; NMeV = CN[C@H](C(=O)O)C(C)C

Experiments:
[1] = test system: Rhizoctonia solani; assay: In vitro agar-dilution test; assay type: cell-based; details: for Percent Inhibition / Zone of Growth: Table 5; for Zone of Growth: control zone 27
Method: (§1) In these tests 100× solutions of majusculamide C in 95% aqueous ethanol were used. Majusculamide C solution (0.1 ml) and melted agar (9.9 ml) at 50° C. were mixed. An inoculum plug (6-mm diameter) was placed in the center of each plate; the radial growth of the colony was measured. Zone of growth was measured from the edge of the plug to the edge of the colony.

[2] = test system: Sclerotinia homoeocarpa; assay: In vitro agar-dilution test; assay type: cell-based; details: for Percent Inhibition / Zone of Growth: Table 5; for Zone of Growth: control zone 23
Method: as §1

[3] = test system: Pythium ultimum Ridomil-resistant strain; assay: In vitro agar-dilution test, Ridomil-resistant strain; assay type: cell-based; details: for Zone of Growth: control zone 39
[4] = test system: Phytophthora capsici Ridomil-resistant strain; assay: as above; assay type: cell-based; details: for Zone of Growth: control zone 28
[5] = test system: Pythium ultimum Ridomil-sensitive strain; assay: In vitro agar-dilution test, Ridomil-sensitive strain; assay type: cell-based; details: for Zone of Growth: control zone 39
[6] = test system: Phytophthora capsici Ridomil-Sensitive strain; assay: as above; assay type: cell-based; details: for Zone of Growth: control zone 27
[7] = test system: Phytophthora infestans; assay type: cell-based; details: for Zone of Growth: control zone 12
[8] = test system: Pythium aphanidermatum; assay: In vitro agar-dilution test; assay type: cell-based; design: Zone of Growth: unit not given here
Method: as §1

[9] = Solubility in solvents; assay type: physicochemical
[10] = test system: Phytophthora infestans; assay type: in vivo; design: key to Disease Control rating, Tomato Late Blight: 1=severe disease; 5=no disease; details: for Disease Control rating, Tomato Late Blight: 1-5 scale, average of two replicates
[11] = test system: Aphanomyces euteiches; assay: In vitro agar-dilution test; assay type: cell-based; design: Zone of Growth: unit not given beside the values; details: for Zone of Growth: control zone 29
Method: as §1

[12] = test system: Tomato leaves (C. V. Rutgers); details: for Phytotoxicity rating, tomato leaves: average of two replicates
[13] = swimmer's itch; Mynderse et al., Science 196, 538-540 (1977); cited from earlier work
[14] = calculated from Table 5 results
[15] = calculated from Table 9 results
[16] = calculated from Table 7 results
[17] = 0.1 ppm, Table 7 experiment, control zone 32
[18] = 1.0 ppm, Table 7 experiment, control zone 32

## CCC1NC(=O)[C@H](C)NC(=O)C(C)(C)C(=O)[C@H](C)NC(=O)[C@H](Cc2ccc(OC)cc2)N(C)C(=O)[C@H](C(C)C)N(C)C(=O)CNC(=O)[C@H]([C@@H](C)CC)N(C)C(=O)CNC(=O)[C@H]([C@@H](C)CC)OC(=O)C1C (some centres unmarked) [Majusculamide C, majusculamide C] (cyclo(A[X1]G[NMeI]G[NMeV][NMeY](Me)[X2]))
[1]; 1 ppm
  Percent Inhibition: 30%
  Zone of Growth: 19
[1]; 10 ppm
  Percent Inhibition: 63%
  Zone of Growth: 10
[1]; [14]
  ED50 (effective dose to achieve 50% inhibition): 4 ppm
[1]; suitable tests, not specified, Rhizoctonia damping-off
  Control of fungus: control
[2]; 1 ppm
  Percent Inhibition: 26%
  Zone of Growth: 17
[2]; 10 ppm
  Percent Inhibition: 30%
  Zone of Growth: 16
[2]; [14]
  ED50 (effective dose to achieve 50% inhibition): > 10 ppm
[3]; 0.1 ppm
  Percent Inhibition: 60%
  Zone of Growth: 15.5
[3]; 1 ppm
  Percent Inhibition: 91%
  Zone of Growth: 3.5
[3]; 10 ppm
  Growth observation (footnote b): No growth on plug
  Percent Inhibition: 100%
  Zone of Growth: 0
[3]; [15]
  ED50: < 0.5 ppm
[4]; 0.1 ppm
  Percent Inhibition: 48%
  Zone of Growth: 14.5
[4]; 1 ppm
  Percent Inhibition: 84%
  Zone of Growth: 4.5
[4]; 10 ppm
  Percent Inhibition: 98%
  Zone of Growth: 0.5
[4]; [15]
  ED50: 0.25 ppm
[5]; 0.1 ppm
  Percent Inhibition: 53%
  Zone of Growth: 18.5
[5]; 1 ppm
  Percent Inhibition: 88%
  Zone of Growth: 4.5
[5]; 10 ppm
  Percent Inhibition: 100%
  Zone of Growth: 0
[5]; [15]
  ED50: < 0.1 ppm
[6]; 0.1 ppm
  Percent Inhibition: 46%
  Zone of Growth: 14.5
[6]; 1 ppm
  Percent Inhibition: 74%
  Zone of Growth: 7
[6]; 10 ppm
  Percent Inhibition: 100%
  Zone of Growth: 0
[6]; [15]
  ED50: 0.45 ppm
[7]; 0.01 ppm
  Percent Inhibition: 17%
  Zone of Growth: 10
[7]; 0.1 ppm
  Percent Inhibition: 42%
  Zone of Growth: 7
[7]; 1.0 ppm
  Percent Inhibition: 46%
  Zone of Growth: 6.5
[7]; 10.0 ppm
  Percent Inhibition: 100%
  Zone of Growth: 0
[7]; [16]
  ED50: 1.07 ppm
[8]; 0.01 ppm, Table 7 experiment
  Percent Inhibition: 6%
[8]; 0.01 ppm, Table 7 experiment, control zone 32
  Zone of Growth: 30
[8]; 0.1 ppm, Table 7 experiment
  Percent Inhibition: 62%
[8]; [17]
  Zone of Growth: 12
[8]; 1 ppm, Table 5 experiment
  Percent Inhibition: 97%
[8]; 1 ppm, Table 5 experiment, control zone 28
  Zone of Growth: 1
[8]; 1.0 ppm, Table 7 experiment
  Percent Inhibition: 95%
[8]; [18]
  Zone of Growth: 1.5
[8]; 10 ppm, Table 5 experiment
  Percent Inhibition: 100%
[8]; 10 ppm, Table 5 experiment, control zone 28
  Zone of Growth: 0
[8]; 10.0 ppm, Table 7 experiment
  Percent Inhibition: 100%
[8]; 10.0 ppm, Table 7 experiment, control zone 32
  Zone of Growth: 0
[8]; [14]
  ED50 (effective dose to achieve 50% inhibition): < 1 ppm
[8]; [16]
  ED50: 0.07 ppm
[9]; methanol, dichloromethane, and acetone
  Solubility in organic solvents: soluble
[9]; water
  Solubility in water: not soluble
[10]; 6.25 ppm foliar spray
  Disease Control rating, Tomato Late Blight: 5
[10]; 25 ppm foliar spray
  Disease Control rating, Tomato Late Blight: 5
[10]; 100 ppm foliar spray
  Disease Control rating, Tomato Late Blight: 5
[10]; 400 ppm foliar spray
  Disease Control rating, Tomato Late Blight: 5
[10]; suitable tests, not specified, tomato late blight
  Control of fungus: control
[10]; summary statement
  In vivo effectiveness against tomato late blight: effective
[11]; 0.01 ppm
  Percent Inhibition: 7%
  Zone of Growth: 27
[11]; 0.1 ppm
  Percent Inhibition: 7%
  Zone of Growth: 27
[11]; 1.0 ppm
  Percent Inhibition: 29%
  Zone of Growth: 20.5
[11]; 10.0 ppm
  Percent Inhibition: 88%
  Zone of Growth: 3.5
[11]; [16]
  ED50: 2.1 ppm
[12]; 6.25 ppm foliar spray
  Phytotoxicity rating, tomato leaves: 0
[12]; 25 ppm foliar spray
  Phytotoxicity rating, tomato leaves: 0
[12]; 100 ppm foliar spray
  Phytotoxicity rating, tomato leaves: 3.5
[12]; 400 and 100 ppm foliar spray
  Phytotoxicity observation, tomato leaves (footnote b): Evidence of chlorosis
[12]; 400 ppm foliar spray
  Phytotoxicity rating, tomato leaves: 4

## COCC(=O)N(c1c(C)cccc1C)C(C)C(=O)OC (centres unmarked) [Ridomil (tech.), reference compound]
[7]; 0.1 ppm
  Percent Inhibition: 50%
  Zone of Growth: 6
[7]; 1.0 ppm
  Percent Inhibition: 83%
  Zone of Growth: 2
[8]; 0.1 ppm, Table 7 experiment
  Percent Inhibition: 34%
[8]; [17]
  Zone of Growth: 21
[8]; 1.0 ppm, Table 7 experiment
  Percent Inhibition: 94%
[8]; [18]
  Zone of Growth: 2
[11]; 0.1 ppm
  Percent Inhibition: 7%
  Zone of Growth: 27
[11]; 1.0 ppm
  Percent Inhibition: 3%
  Zone of Growth: 28

## CO[C@@H](CC[C@H](C)[C@H]1O[C@@]23C[C@H](OC(=O)C[C@H]([C@@H](C)O)OC(=O)C[C@](O)(O2)[C@H](C)CC3(C)C)[C@@H]1C)c1cccc(O)c1 [debromoaplysiatoxin]
[13]
  Contact dermatitis: causes a severe contact dermatitis
